Earlier results on one compound are cited in patent publication US20110252694A1, “COMPOSITIONS FOR DRIP FUMIGATION” (priority 2010, published 2011).

Molecules are shown by their SMILES.

Data set [1] relates to weeds, nematodes, and soil pathogens. The conditions noted are these: compared with methyl bromide.
Another data set has as its system plant. The conditions noted are these: when used in effective concentrations.

For the compound `CI` [Methyl Iodide, methyl iodide], the “combating weeds, nematodes, and soil pathogens” value in data set [1] is on record as “equal to or better than methyl bromide”. For the same compound, the plant toxicity result with plant is recorded as “does not result in plant toxicity”.
